{"source": "patent US11457629B2", "about": "“Heteroarylphenylaminoquinolines and analogues” (Bayer Aktiengesellschaft, priority 2017, dated 2022)", "key": {"Leptnosphaeria nodorum [1]": {"tested_on": "Leptnosphaeria nodorum", "assay": "Example D: Leptnosphaeria nodorum in vitro cell test", "format": "cell-based", "details": "144 h, read-out: efficacy (inhibition of fungal growth)"}, "[2]": {"assay": "Log P by HPLC on reversed phase columns, method [a] (acidic range, 0.1% formic acid)", "description": "In the following, measurement of Log P values was performed according to EEC directive 79/831 Annex V.A8 by HPLC (High Performance Liquid Chromatography) on reversed phase columns with the following methods: • ^[a]\nIf more than one Log P value is available within the same method, all the values are given and separated by “+”.\nCalibration was done with straight-chain alkan2-ones (with 3 to 16 carbon atoms) with known Log P values (measurement of Log P values using retention times with linear interpolation between successive alkanones)."}, "[3]": {"tested_on": "Colletotrichum lindemuthianum", "assay": "Example K: comparative data, in vivo preventive test on Colletotrichum lindemuthianum (antrachnose on bean)", "details": "rate of application 500 ppm, evaluated 6 days after inoculation"}, "Pyricularia oryzae": {"tested_on": "Pyricularia oryzae", "assay": "microbe, parasite or virus in culture", "format": "cell-based", "details": "120 h, read-out: efficacy (inhibition of fungal growth)"}, "[4]": {"tested_on": "Colletotrichum lindemuthianum", "assay": "Example F: Colletotrichum lindemuthianum in vitro cell test", "format": "cell-based", "details": "144 h, read-out: efficacy (inhibition of fungal growth)"}, "Septoria tritici": {"tested_on": "Septoria tritici", "assay": "Example L: comparative data, Septoria tritici in vitro cell test", "format": "cell-based", "details": "rate of application 4 ppm; 7 days incubation", "experimental": "Comparative Data—Septoria tritici In Vitro Cell Test Solvent: DMSOCulture medium: 14.6 g anhydrous D-glucose (VWR), 7.1 g Bacteriological Peptone (Oxoid), 1.4 g granulated Yeast Extract (Merck), QSP 1 literInoculum: spore suspension The compounds to be tested were solubilized in DMSO and the solution used to prepare the required range of concentrations. […] A spore suspension of S. tritici was prepared and diluted to the desired spore density. The tested compounds were evaluated for their ability to inhibit spore germination and mycelium growth in liquid culture assay. The compounds were added in the desired concentration to the culture medium to with spores. […] Inhibition of fungal growth was determined by comparing the absorbance values in wells containing the tested compound with the absorbance in control wells without tested compound."}, "Leptnosphaeria nodorum [5]": {"tested_on": "Leptnosphaeria nodorum", "assay": "Example I: comparative data, Leptnosphaeria nodorum in vitro cell test", "format": "cell-based", "details": "rate of application 4 ppm; 6 days incubation"}, "Ustilago avenae": {"tested_on": "Ustilago avenae", "assay": "Example J: comparative data, Ustilago avenae in vitro cell test", "format": "cell-based", "details": "rate of application 20 ppm; 4 days incubation"}, "Botrytis cinerea": {"tested_on": "Botrytis cinerea", "assay": "Example H: comparative data, in vivo preventive test on Botrytis cinerea (grey mould), gherkin", "details": "rate of application 500 ppm, evaluated 4 to 5 days after inoculation"}, "[6]": {"details": "HPLC on reversed phase columns, method [a]: acidic range"}, "[7]": {"details": "logP, HPLC on reversed phase columns, method [a]: acidic range"}, "[8]": {"details": "LogP, method [a] / Method A: LC-UV, acidic range"}, "[9]": {"details": "20 ppm of active ingredient, 6 days incubation"}}, "note": "Where two headings read alike, the source gives them in different places."}
{"smiles": "CC(C)n1ccc(-c2c(F)cccc2Nc2cnc3ccccc3c2)n1", "note": "[Example I-027]", "values": [{"measurement": "inhibition at 20 ppm", "setting": "Leptnosphaeria nodorum [1]", "value": "80 to 89", "unit": "%"}, {"measurement": "logP", "setting": "[2]; [6]", "value": "4.05 ^[a]"}, {"measurement": "Efficacy in %", "setting": "[3]", "value": 65, "unit": "%"}, {"measurement": "inhibition at 20 ppm", "setting": "Pyricularia oryzae", "value": "90 to 100", "unit": "%"}]}
{"smiles": "Cc1nc2c(F)c(F)ccc2cc1Nc1ccccc1-c1ccn(C(C)C)n1", "note": "[Example I-043, 7,8-difluoro-N-[2-(1-isopropylpyrazol-3-yl)phenyl]-2-methyl-quinolin-3-amine]", "values": [{"measurement": "inhibition at 20 ppm", "setting": "Leptnosphaeria nodorum [1]", "value": "80 to 89", "unit": "%"}, {"measurement": "chromatographic logP", "setting": "[2]; [7]", "value": 5}, {"measurement": "inhibition at 20 ppm", "setting": "Pyricularia oryzae", "value": "90 to 100", "unit": "%"}]}
{"smiles": "Cc1nc2c(F)c(F)ccc2cc1N(C)c1ccccc1-c1ccn(C(C)C)n1", "note": "[Example I-046, 7,8-difluoro-N-[2-(1-isopropylpyrazol-3-yl)phenyl]-N,2-dimethyl-quinolin-3-amine]", "values": [{"measurement": "chromatographic logP", "setting": "[2]; [8]", "value": 4.36}, {"measurement": "chromatographic logP", "setting": "[2]; [7]", "value": 4.36}, {"measurement": "inhibition at 20 ppm", "setting": "Pyricularia oryzae", "value": "80 to 89", "unit": "%"}]}
{"smiles": "Cc1nc2c(F)c(F)ccc2cc1Nc1cccc(F)c1-c1ccnn1C", "note": "[Example I-050, 7,8-difluoro-N-[3-fluoro-2-(1-methyl-1H-pyrazol-5-yl)phenyl]-2-methylquinolin-3-amine]", "values": [{"measurement": "inhibition at 20 ppm", "setting": "Leptnosphaeria nodorum [1]; [9]", "value": "90 to 100", "unit": "%"}, {"measurement": "chromatographic logP", "setting": "[2]; [8]", "value": 3.07}, {"measurement": "chromatographic logP", "setting": "[2]; [7]", "value": 3.09}, {"measurement": "inhibition at 20 ppm", "setting": "[4]; [9]", "value": "90 to 100", "unit": "%"}, {"measurement": "inhibition at 20 ppm", "setting": "Pyricularia oryzae", "value": "90 to 100", "unit": "%"}]}
{"smiles": "CC(C)(O)c1ccnn1-c1ccccc1Nc1cnc2ccccc2c1", "note": "[Example I-063]", "values": [{"measurement": "chromatographic logP", "setting": "[2]; [7]", "value": 1.79}, {"measurement": "Efficacy in %", "setting": "Septoria tritici", "value": 96, "unit": "%"}]}
{"smiles": "COC(=O)c1ccnn1-c1ccccc1Nc1cnc2ccccc2c1", "note": "[Example I-064, methyl 1-[2-(quinolin-3-ylamino)phenyl]-1H-pyrazole-5-carboxylate]", "values": [{"measurement": "inhibition at 20 ppm", "setting": "Leptnosphaeria nodorum [1]; [9]", "value": "70 to 79", "unit": "%"}, {"measurement": "chromatographic logP", "setting": "[2]; [8]", "value": 2.02}, {"measurement": "chromatographic logP", "setting": "[2]; [7]", "value": 2.02}, {"measurement": "inhibition at 20 ppm", "setting": "[4]; [9]", "value": "80 to 89", "unit": "%"}]}
{"smiles": "C=C(C)c1ccnn1-c1ccccc1Nc1cnc2ccccc2c1", "note": "[Example I-066]", "values": [{"measurement": "Efficacy in %", "setting": "Leptnosphaeria nodorum [5]", "value": 94, "unit": "%"}, {"measurement": "Efficacy in %", "setting": "Ustilago avenae", "value": 63, "unit": "%"}, {"measurement": "inhibition at 20 ppm", "setting": "Leptnosphaeria nodorum [1]", "value": "90 to 100", "unit": "%"}, {"measurement": "chromatographic logP", "setting": "[2]; [7]", "value": 2.73}, {"measurement": "inhibition at 20 ppm", "setting": "[4]", "value": "80 to 89", "unit": "%"}, {"measurement": "Efficacy in %", "setting": "Botrytis cinerea", "value": 98, "unit": "%"}, {"measurement": "inhibition at 20 ppm", "setting": "Pyricularia oryzae", "value": "90 to 100", "unit": "%"}]}
{"smiles": "CC(C)n1ccc(-c2c(F)cccc2Nc2cnc3ccccc3c2)n1", "note": "[Example I-067]", "values": [{"measurement": "logP", "setting": "[2]; [6]", "value": "1.94 ^[a]"}, {"measurement": "Efficacy in %", "setting": "Botrytis cinerea", "value": 95, "unit": "%"}]}
{"smiles": "CC(C)(C)[Si](C)(C)OCc1ccnn1-c1ccccc1Nc1cnc2ccccc2c1", "note": "[Example I-069, N-{2-[5-({[tert-butyl(dimethyl)silyl]oxy}methyl)-1H-pyrazol-1-yl]phenyl}quinolin-3-amine]", "values": [{"measurement": "inhibition at 20 ppm", "setting": "Leptnosphaeria nodorum [1]; [9]", "value": "80 to 89", "unit": "%"}, {"measurement": "chromatographic logP", "setting": "[2]; [8]", "value": 4.92}, {"measurement": "chromatographic logP", "setting": "[2]; [7]", "value": 4.92}]}
{"smiles": "CCn1nccc1-c1ccccc1Nc1cnc2c(F)cccc2c1", "note": "[Example I-080, N-[2-(1-ethyl-1H-pyrazol-5-yl)phenyl]-8-fluoroquinolin-3-amine]", "values": [{"measurement": "inhibition at 20 ppm", "setting": "Leptnosphaeria nodorum [1]; [9]", "value": "90 to 100", "unit": "%"}, {"measurement": "chromatographic logP", "setting": "[2]; [8]", "value": 2.82}, {"measurement": "chromatographic logP", "setting": "[2]; [7]", "value": 2.84}, {"measurement": "inhibition at 20 ppm", "setting": "[4]; [9]", "value": "90 to 100", "unit": "%"}, {"measurement": "inhibition at 20 ppm", "setting": "Pyricularia oryzae", "value": "80 to 89", "unit": "%"}]}
{"smiles": "Cc1nc2ccccc2nc1Nc1cccc(F)c1-c1ccnn1C", "note": "[Example I-083, N-[3-fluoro-2-(1-methyl-1H-pyrazol-5-yl)phenyl]-3-methylquinoxalin-2-amine]", "values": [{"measurement": "inhibition at 20 ppm", "setting": "Leptnosphaeria nodorum [1]; [9]", "value": "90 to 100", "unit": "%"}, {"measurement": "chromatographic logP", "setting": "[2]; [8]", "value": 2.82}, {"measurement": "chromatographic logP", "setting": "[2]; [7]", "value": 2.82}, {"measurement": "inhibition at 20 ppm", "setting": "[4]; [9]", "value": "90 to 100", "unit": "%"}, {"measurement": "inhibition at 20 ppm", "setting": "Pyricularia oryzae", "value": "90 to 100", "unit": "%"}]}
{"smiles": "Fc1cccc2cc(Nc3ccccc3-c3ccnn3Cc3ccccc3)cnc12", "note": "[Example I-096, N-[2-(1-benzyl-1H-pyrazol-5-yl)phenyl]-8-fluoroquinolin-3-amine]", "values": [{"measurement": "inhibition at 20 ppm", "setting": "Leptnosphaeria nodorum [1]; [9]", "value": "90 to 100", "unit": "%"}, {"measurement": "chromatographic logP", "setting": "[2]; [8]", "value": 3.49}, {"measurement": "chromatographic logP", "setting": "[2]; [7]", "value": 3.49}, {"measurement": "inhibition at 20 ppm", "setting": "[4]; [9]", "value": "90 to 100", "unit": "%"}, {"measurement": "inhibition at 20 ppm", "setting": "Pyricularia oryzae", "value": "90 to 100", "unit": "%"}]}
{"smiles": "CC(C)(C)OC(=O)N(c1cnc2ccccc2c1)c1ccccc1-n1nccc1C=O", "note": "[XX-06, tert-butyl [2-(5-formyl-1H-pyrazol-1-yl)phenyl]quinolin-3-ylcarbamate]", "values": [{"measurement": "chromatographic logP", "setting": "[2]; [8]", "value": 3.06}]}
{"smiles": "CC(C)(C)OC(=O)N(c1cnc2ccccc2c1)c1ccccc1-n1nccc1CO[Si](C)(C)C(C)(C)C", "note": "[XX-07, tert-butyl {2-[5-({[tert-butyl(dimethyl)silyl]oxy}methyl)-1H-pyrazol-1-yl]phenyl}quinolin-3-ylcarbamate]", "values": [{"measurement": "chromatographic logP", "setting": "[2]; [8]", "value": 5.84}]}
{"smiles": "CC(C)(C)OC(=O)N(c1cnc2ccccc2c1)c1cccc(F)c1-n1nccc1CO", "note": "[XX-08, tert-butyl {3-fluoro-2-[5-(hydroxymethyl)-1H-pyrazol-1-yl]phenyl}quinolin-3-ylcarbamate]", "values": [{"measurement": "chromatographic logP", "setting": "[2]; [8]", "value": 2.47}]}
{"smiles": "CC(C)(C)OC(=O)N(c1cnc2ccccc2c1)c1cccc(F)c1-n1nccc1CO[Si](C)(C)C(C)(C)C", "note": "[XX-09, tert-butyl {2-[5-({[tert-butyl(dimethyl)silyl]oxy}methyl)-1H-pyrazol-1-yl]-3-fluorophenyl}quinolin-3-ylcarbamate]", "values": [{"measurement": "chromatographic logP", "setting": "[2]; [8]", "value": 5.8}]}
{"smiles": "CC(C)(C)OC(=O)N(c1cnc2ccccc2c1)c1cccc(F)c1-n1nccc1C=O", "note": "[XX-10, tert-butyl [3-fluoro-2-(5-formyl-1H-pyrazol-1-yl)phenyl]quinolin-3-ylcarbamate]", "values": [{"measurement": "chromatographic logP", "setting": "[2]; [8]", "value": 3.24}]}
{"smiles": "CC(C)(C)OC(=O)N(c1cnc2ccccc2c1)c1cccc(F)c1-n1nccc1C(C)(C)O", "note": "[XX-11, tert-butyl {3-fluoro-2-[5-(2-hydroxypropan-2-yl)-1H-pyrazol-1-yl]phenyl}quinolin-3-ylcarbamate]", "values": [{"measurement": "chromatographic logP", "setting": "[2]; [8]", "value": 3.33}]}
{"smiles": "CC(C)(C)OC(=O)N(c1cnc2ccccc2c1)c1ccccc1-n1nccc1CO", "note": "[XX-12, tert-butyl {2-[5-(hydroxymethyl)-1H-pyrazol-1-yl]phenyl}quinolin-3-ylcarbamate]", "values": [{"measurement": "chromatographic logP", "setting": "[2]; [8]", "value": 2.35}]}
{"smiles": "C=C(C)c1ccnn1-c1ccccc1Oc1cnc2ccccc2c1", "note": "[drawing 46, reference compound]", "values": [{"measurement": "Efficacy in %", "setting": "Botrytis cinerea", "value": 20, "unit": "%"}]}
{"smiles": "CC(C)n1ccc(-c2c(F)cccc2Oc2cnc3ccccc3c2)n1", "note": "[drawing 47, reference compound]", "values": [{"measurement": "Efficacy in %", "setting": "Botrytis cinerea", "value": 68, "unit": "%"}]}
{"smiles": "C=C(C)c1ccnn1-c1ccccc1Oc1cnc2ccccc2c1", "note": "[drawing 50, reference compound]", "values": [{"measurement": "Efficacy in %", "setting": "Leptnosphaeria nodorum [5]", "value": 64, "unit": "%"}]}
{"smiles": "C=C(C)c1ccnn1-c1ccccc1Oc1cnc2ccccc2c1", "note": "[drawing 52, reference compound]", "values": [{"measurement": "Efficacy in %", "setting": "Ustilago avenae", "value": 1, "unit": "%"}]}
{"smiles": "CC(C)n1ccc(-c2c(F)cccc2Oc2cnc3ccccc3c2)n1", "note": "[drawing 54, reference compound]", "values": [{"measurement": "Efficacy in %", "setting": "[3]", "value": 0, "unit": "%"}]}
{"smiles": "CC(C)(O)c1ccnn1-c1ccccc1Oc1cnc2ccccc2c1", "note": "[reference compound]", "values": [{"measurement": "Efficacy in %", "setting": "Septoria tritici", "value": 0, "unit": "%"}]}
